SMILES strings stand for the structures. Activity calls are given as the source filed them. The rule behind the calls is not given here.

Assay [1] has as its system HUVEC. The assay is described as follows: Antiangiogenic activity in HUVEC assessed as inhibition of cell migration at 2.5 uM incubated for 6 to 24 hrs by wound healing assay. It is filed as functional, cell-based. The note with it: Homo sapiens.
The subject of assay [2] is HUVEC. The assay is described as follows: Antiangiogenic activity in HUVEC assessed as inhibition of cell migration incubated for 6 to 24 hrs by wound healing assay. The settings on record: Homo sapiens. It is filed as functional, cell-based.
In another assay the test system is MOLM-13. The assay is described as follows: Antiproliferative activity in human MOLM13 cells assessed as inhibition of cell proliferation by Cell-titer-Glo method. It is filed as functional.
For the next assay, the system named is MV4-11. The assay is described as follows: Antiproliferative activity in human MV4-11 cells assessed as inhibition of cell proliferation by Cell-titer-Glo method. It counts as functional.
The subject of another assay is OE19. The assay is described as follows: Antiproliferative activity in human OE19 cells assessed as inhibition of cell proliferation by Cell-titer-Glo method. It counts as functional.
A short description of assay [3]: Antiproliferative activity in human OE21 cells assessed as inhibition of cell proliferation by Cell-titer-Glo method. It is filed as functional.
Another assay deals with KYSE-520 cell line. The assay is described as follows: Antiproliferative activity in human KYSE520 cells assessed as inhibition of cell proliferation by Cell-titer-Glo method. It is filed as functional.

Take `C/C1=C/[C@@]2(C)C(=CCC[C@@H]2C)CC[C@H](O)[C@H]1O`: the result in the assay with HUVEC [1] was Active. Besides, the Activity entry in the assay with HUVEC [2] was “Dose-dependent effect”.
In the same order, the values of `CC1=C([C@@]2(C)C3=CC(=O)O[C@@H]3CC[C@@H]2C)C(=O)NC1=O` are “Active” and “Dose-dependent effect”.
Usually GI50 stands for the concentration giving 50% growth inhibition. For `C[C@@H]1C(=O)O[C@]23C=CC(=O)[C@H]1[C@]2(C)[C@@H](C)CC[C@H]3O`, the GI50 (in the assay on MOLM-13; with MV4-11; with OE19; in assay [3]; in the assay on KYSE-520 cell line) was 6.4 to 8.6 µM in each case.

Values taken from ChEMBL document CHEMBL4316639, “Clavukoellians A-F, Highly Rearranged Nardosinane Sesquiterpenoids with Antiangiogenic Activity from Clavularia koellikeri” (2019).
